Experiments:
Experiment in all cases: KINOMEscan competition binding
[1] = target: TTK (human) (UniProt P33981)
[2] = target: FGFR3 (human) (UniProt P22607)
[3] = target: PLK4 (human) (UniProt O00444)
[4] = target: KDR (human) (UniProt P35968)
[5] = target: CAMK2D (human) (UniProt Q13557)
[6] = target: MKNK2 (human) (UniProt Q9HBH9)
[7] = target: PRKACA (human) (UniProt P17612)
[8] = target: FGR (human) (UniProt P09769)
[9] = target: EPHA4 (human) (UniProt P54764)
[10] = target: MAPK12 (human) (UniProt P53778)
Chain of MAPK12 (human) (P53778 whole entry, looked up): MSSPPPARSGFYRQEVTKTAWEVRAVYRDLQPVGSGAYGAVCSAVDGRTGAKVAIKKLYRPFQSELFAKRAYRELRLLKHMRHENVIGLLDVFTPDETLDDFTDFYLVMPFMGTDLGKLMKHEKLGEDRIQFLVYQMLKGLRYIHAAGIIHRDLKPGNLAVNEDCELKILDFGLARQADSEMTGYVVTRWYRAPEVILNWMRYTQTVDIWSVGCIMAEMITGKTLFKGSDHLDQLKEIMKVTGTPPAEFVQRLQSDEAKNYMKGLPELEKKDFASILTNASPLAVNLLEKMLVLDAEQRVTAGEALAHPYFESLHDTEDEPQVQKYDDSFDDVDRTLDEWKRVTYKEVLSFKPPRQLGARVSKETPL

[11] = target: MAPK9 (human) (UniProt P45984)
[12] = target: AURKA (human) (UniProt O14965)
[13] = target: CAMK1 (human) (UniProt Q14012)
[14] = target: FGFR2 (human) (UniProt P21802)
[15] = target: PIM2 (human) (UniProt Q9P1W9)
Chain of PIM2 (human) (Q9P1W9 whole entry, looked up): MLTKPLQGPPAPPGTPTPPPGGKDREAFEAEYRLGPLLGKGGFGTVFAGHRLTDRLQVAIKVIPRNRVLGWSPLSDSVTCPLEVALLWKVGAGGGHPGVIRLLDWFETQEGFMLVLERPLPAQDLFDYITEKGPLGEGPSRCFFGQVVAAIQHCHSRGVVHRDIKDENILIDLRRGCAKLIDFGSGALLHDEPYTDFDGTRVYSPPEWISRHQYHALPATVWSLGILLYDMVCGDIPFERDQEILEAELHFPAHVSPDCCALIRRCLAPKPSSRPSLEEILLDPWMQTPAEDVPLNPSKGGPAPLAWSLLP

[16] = target: LIMK1 (human) (UniProt P53667)
[17] = target: MAPK14 (human) (UniProt Q16539)
[18] = target: PDGFRB (human) (UniProt P09619)
[19] = target: DAPK2 (human) (UniProt Q9UIK4)
[20] = target: PAK7 (human) (UniProt Q9P286)
Chain of PAK7 (human) (Q9P286 whole entry, looked up): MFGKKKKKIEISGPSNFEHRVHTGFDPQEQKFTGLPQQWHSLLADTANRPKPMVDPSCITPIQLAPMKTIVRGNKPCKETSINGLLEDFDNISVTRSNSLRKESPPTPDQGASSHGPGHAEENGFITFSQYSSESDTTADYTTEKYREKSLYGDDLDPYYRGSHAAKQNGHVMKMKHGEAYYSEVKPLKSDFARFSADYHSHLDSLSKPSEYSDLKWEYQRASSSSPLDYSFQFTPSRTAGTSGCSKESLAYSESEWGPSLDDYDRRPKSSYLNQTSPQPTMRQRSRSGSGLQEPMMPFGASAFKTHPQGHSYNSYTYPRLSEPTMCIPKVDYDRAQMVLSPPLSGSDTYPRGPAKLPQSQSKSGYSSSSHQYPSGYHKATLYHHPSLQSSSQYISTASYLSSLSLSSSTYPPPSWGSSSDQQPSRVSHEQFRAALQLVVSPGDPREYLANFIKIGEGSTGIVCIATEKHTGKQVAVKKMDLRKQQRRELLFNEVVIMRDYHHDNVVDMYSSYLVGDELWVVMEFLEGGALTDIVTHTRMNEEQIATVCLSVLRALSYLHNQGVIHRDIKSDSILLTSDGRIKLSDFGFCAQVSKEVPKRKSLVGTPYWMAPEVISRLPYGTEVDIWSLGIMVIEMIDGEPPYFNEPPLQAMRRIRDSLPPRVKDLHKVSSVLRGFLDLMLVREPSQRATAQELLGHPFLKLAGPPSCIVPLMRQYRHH

[21] = target: CDK5 (human) (UniProt Q00535)
[22] = target: JAK1 JH1 catalytic (human) (UniProt P23458)
[23] = target: NEK6 (human) (UniProt Q9HC98)
[24] = target: CAMKK1 (human) (UniProt Q8N5S9)
[25] = target: NTRK1 (human) (UniProt P04629)
[26] = target: PRKAA1 (human) (UniProt Q13131)
[27] = target: KIT (human) (UniProt P10721)
[28] = target: EPHA2 (human) (UniProt P29317)
[29] = target: CAMK2A (human) (UniProt Q9UQM7)
[30] = target: STK16 (human) (UniProt O75716)
[31] = target: CAMK2G (human) (UniProt Q13555)
[32] = target: MAPK10 (human) (UniProt P53779)
[33] = target: NEK9 (human) (UniProt Q8TD19)
[34] = target: RPS6KA5 KD1 (human) (UniProt O75582)
[35] = target: RIPK2 (human) (UniProt O43353)
[36] = target: FGFR1 (human) (UniProt P11362)
[37] = target: MAP3K5 (human) (UniProt Q99683)
[38] = target: PIM1 (human) (UniProt P11309)
Chain of PIM1 (human) (P11309 whole entry, looked up): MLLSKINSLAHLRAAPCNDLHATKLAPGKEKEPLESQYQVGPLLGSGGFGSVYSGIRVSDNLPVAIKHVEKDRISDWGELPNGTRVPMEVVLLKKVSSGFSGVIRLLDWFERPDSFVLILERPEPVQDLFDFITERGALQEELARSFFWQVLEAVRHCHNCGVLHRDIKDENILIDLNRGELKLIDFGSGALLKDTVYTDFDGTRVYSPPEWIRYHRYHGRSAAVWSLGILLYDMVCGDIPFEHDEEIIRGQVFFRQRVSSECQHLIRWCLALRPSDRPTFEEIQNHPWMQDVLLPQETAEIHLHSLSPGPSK

[39] = target: FLT3 (human) (UniProt P36888)
[40] = target: PAK6 (human) (UniProt Q9NQU5)
Chain of PAK6 (human) (Q9NQU5 whole entry, looked up): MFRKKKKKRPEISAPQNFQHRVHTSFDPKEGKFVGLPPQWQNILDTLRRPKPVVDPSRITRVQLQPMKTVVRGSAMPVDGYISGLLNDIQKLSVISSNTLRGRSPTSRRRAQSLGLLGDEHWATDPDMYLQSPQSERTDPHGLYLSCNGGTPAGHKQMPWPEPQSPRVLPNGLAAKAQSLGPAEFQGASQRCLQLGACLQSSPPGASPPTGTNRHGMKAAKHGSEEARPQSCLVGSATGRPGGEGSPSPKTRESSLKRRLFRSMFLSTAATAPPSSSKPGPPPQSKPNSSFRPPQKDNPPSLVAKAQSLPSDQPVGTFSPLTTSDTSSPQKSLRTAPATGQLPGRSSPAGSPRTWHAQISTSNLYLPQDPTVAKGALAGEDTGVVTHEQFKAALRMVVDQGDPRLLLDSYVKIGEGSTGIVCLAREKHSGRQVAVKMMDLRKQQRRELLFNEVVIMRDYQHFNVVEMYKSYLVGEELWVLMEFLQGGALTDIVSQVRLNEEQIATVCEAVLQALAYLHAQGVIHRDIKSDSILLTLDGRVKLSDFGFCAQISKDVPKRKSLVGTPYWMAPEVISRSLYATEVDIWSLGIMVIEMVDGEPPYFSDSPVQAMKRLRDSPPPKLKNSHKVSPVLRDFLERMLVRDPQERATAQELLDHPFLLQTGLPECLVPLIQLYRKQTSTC

[41] = target: AURKC (human) (UniProt Q9UQB9)
[42] = target: MAPK8 (human) (UniProt P45983)
Chain of MAPK8 (human) (P45983 whole entry, looked up): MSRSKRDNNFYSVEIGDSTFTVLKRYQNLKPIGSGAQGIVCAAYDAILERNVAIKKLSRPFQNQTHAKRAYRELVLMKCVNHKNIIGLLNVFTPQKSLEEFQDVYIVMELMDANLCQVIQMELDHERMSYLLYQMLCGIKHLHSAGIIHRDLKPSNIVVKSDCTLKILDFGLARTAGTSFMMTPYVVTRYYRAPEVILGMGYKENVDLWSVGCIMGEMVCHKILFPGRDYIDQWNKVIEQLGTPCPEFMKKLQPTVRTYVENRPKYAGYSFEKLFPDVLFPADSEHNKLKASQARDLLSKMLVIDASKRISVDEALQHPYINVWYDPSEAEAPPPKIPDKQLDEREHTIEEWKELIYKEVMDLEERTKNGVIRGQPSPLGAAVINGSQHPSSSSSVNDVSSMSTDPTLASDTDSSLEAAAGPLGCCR

[43] = target: INSR (human) (UniProt P06213)
[44] = target: CDK2 (human) (UniProt P24941)
[45] = target: RPS6KA3 KD1 (human) (UniProt P51812)
[46] = target: PTK6 (human) (UniProt Q13882)
[47] = target: FLT4 (human) (UniProt P35916)
[48] = target: CSNK1G1 (human) (UniProt Q9HCP0)
[49] = target: CAMK2B (human) (UniProt Q13554)
[50] = target: MAPK11 (human) (UniProt Q15759)
Chain of MAPK11 (human) (Q15759 whole entry, looked up): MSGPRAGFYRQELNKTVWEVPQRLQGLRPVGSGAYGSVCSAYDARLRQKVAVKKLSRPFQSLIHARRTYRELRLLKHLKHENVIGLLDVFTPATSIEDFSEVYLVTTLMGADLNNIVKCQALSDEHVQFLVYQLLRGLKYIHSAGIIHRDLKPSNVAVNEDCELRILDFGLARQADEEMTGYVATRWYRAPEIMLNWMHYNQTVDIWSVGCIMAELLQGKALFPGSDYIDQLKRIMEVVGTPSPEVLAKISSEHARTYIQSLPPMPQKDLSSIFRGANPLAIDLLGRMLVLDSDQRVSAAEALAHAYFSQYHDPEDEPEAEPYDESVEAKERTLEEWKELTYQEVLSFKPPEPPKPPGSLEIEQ

[51] = target: EPHA7 (human) (UniProt Q15375)
[52] = target: PAK4 (human) (UniProt O96013)

Measured: Kd

Chain of TTK (human) (P33981 whole entry, looked up): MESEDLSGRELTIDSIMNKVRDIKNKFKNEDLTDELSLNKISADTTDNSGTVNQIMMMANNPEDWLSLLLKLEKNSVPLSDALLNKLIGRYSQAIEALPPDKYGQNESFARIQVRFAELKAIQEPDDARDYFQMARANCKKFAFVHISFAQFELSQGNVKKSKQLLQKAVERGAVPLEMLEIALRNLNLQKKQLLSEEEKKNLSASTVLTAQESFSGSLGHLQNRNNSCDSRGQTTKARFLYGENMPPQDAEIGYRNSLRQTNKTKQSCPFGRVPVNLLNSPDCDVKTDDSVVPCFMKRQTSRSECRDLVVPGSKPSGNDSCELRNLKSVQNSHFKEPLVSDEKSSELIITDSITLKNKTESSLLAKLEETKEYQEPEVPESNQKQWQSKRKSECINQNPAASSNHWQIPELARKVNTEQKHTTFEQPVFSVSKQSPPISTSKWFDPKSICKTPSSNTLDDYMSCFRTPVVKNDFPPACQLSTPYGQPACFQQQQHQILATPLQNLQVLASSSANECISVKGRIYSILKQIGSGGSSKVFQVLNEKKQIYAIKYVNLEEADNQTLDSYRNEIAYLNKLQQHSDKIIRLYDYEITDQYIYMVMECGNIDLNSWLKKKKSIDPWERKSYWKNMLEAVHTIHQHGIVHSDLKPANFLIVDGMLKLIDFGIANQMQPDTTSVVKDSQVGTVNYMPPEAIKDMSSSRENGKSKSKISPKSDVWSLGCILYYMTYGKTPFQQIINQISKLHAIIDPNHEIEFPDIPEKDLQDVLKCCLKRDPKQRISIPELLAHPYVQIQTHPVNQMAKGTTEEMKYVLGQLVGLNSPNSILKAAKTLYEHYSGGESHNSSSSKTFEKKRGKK
Chain of PLK4 (human) (O00444 whole entry, looked up): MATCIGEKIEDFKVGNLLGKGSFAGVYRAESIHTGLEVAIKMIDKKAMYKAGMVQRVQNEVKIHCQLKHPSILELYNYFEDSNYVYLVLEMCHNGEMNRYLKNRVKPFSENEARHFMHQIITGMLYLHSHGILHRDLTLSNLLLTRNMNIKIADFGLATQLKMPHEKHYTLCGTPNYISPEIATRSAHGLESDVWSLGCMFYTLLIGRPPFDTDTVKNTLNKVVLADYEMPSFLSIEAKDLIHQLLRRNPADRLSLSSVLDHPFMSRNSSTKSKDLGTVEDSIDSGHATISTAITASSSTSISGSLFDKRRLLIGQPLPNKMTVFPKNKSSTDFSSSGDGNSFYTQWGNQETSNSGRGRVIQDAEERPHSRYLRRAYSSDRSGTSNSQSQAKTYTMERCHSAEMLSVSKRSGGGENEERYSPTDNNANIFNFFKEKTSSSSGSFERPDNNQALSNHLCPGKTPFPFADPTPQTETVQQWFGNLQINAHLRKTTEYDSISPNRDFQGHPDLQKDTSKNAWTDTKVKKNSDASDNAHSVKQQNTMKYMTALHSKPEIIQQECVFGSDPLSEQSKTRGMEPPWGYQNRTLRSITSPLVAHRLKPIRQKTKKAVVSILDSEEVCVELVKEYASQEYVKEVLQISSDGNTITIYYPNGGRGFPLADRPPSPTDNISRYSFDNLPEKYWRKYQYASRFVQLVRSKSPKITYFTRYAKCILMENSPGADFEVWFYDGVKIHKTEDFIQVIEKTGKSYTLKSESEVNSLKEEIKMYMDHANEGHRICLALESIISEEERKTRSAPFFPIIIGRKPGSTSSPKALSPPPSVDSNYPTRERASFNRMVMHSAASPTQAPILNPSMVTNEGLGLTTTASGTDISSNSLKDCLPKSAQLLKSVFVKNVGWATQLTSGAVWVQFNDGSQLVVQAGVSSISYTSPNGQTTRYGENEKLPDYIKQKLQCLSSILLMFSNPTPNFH

CS(=O)c1ccc(-c2nc(-c3ccc(F)cc3)c(-c3ccncc3)[nH]2)cc1 (stereo not drawn)
> 10 µM: [1]

CCOc1cc2ncc(C#N)c(Nc3ccc(F)c(Cl)c3)c2cc1NC(=O)/C=C/CN(C)C
> 10 µM: all assays above

Source: the kinase profiling compilation of Christmann-Franck et al. (2016)
